# In US6750202B1, “Phosphinate peptide analogs for the treatment of fibrotic disorders” (priority 1998, dated 2004):
# *1 amine or outer side, *2 acyl side, *3 side chain or, on linkers, in order; H or OH if unused. Where a SMILES comes first, the peptide text is derived from it. [ ]: non-standard residue; d: D form. The star is where a group is joined. X1 = C[C@H](CP(=O)(O)[C@H](Cc1ccccc1)N[*:1])C(=O)[*:2]; Cbz = O=C(OCc1ccccc1)*
# Experiments:
# [1] = target: recombinant PCP (procollagen C-proteinase) (Homo sapiens, UniProt P13497); details: 100 nM inhibitor; FIG. 1
# human meprin = details: concentrations of up to 100 nM; FIG. 3
# Experimental: The meprin activity test was carried out in a completely analogous manner to the in-vitro assay for measuring PCP activity. Instead of the recombinant PCP, use was made of human meprin, which also transforms the fluorescence-labeled decapeptide.
# Sequence of recombinant PCP (procollagen C-proteinase) (P13497 121-986, species assumed): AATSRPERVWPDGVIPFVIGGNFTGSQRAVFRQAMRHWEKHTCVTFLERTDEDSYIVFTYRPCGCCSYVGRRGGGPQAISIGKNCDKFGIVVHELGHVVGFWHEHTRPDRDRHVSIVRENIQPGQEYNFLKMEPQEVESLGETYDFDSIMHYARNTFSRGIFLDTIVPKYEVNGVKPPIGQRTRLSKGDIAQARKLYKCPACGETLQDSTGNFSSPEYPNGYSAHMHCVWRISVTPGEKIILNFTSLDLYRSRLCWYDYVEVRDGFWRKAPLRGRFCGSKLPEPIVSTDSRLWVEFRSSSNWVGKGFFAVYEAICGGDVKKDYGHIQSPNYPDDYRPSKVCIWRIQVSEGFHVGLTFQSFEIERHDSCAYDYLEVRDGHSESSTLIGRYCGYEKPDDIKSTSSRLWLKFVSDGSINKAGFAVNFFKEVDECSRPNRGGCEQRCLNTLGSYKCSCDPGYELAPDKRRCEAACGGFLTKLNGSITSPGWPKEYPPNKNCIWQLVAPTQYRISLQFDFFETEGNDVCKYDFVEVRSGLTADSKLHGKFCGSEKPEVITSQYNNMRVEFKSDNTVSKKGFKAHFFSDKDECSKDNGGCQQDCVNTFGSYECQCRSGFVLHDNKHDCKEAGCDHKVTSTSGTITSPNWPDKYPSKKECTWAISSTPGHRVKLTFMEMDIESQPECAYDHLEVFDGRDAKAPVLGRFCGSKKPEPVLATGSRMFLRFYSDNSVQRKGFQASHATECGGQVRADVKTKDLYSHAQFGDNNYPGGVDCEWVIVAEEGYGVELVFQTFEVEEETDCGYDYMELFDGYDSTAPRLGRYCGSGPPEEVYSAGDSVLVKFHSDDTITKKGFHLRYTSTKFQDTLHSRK
compound,measurement,setting,value
COC(=O)[C@H](CC(C)C)NC(=O)[C@@H]1CCCN1C(=O)[C@H](C)CP(=O)(O)[C@H](Cc1ccccc1)NC(=O)[C@H](CCCCN)NC(=O)[C@@H]1CCCN1C(=O)OCc1ccccc1 [Z-PKF(PC)APL-O-Me] (Cbz-PK[X1]PL-OMe),inhibition of PCP enzyme activity (transformation of the DABCYL-EDANS-decapeptide substrate as a function of time),[1],almost completely inhibited
same,inhibition of meprin in its transformation of the fluorescence-labeled peptide,human meprin,only slightly inhibited
